Test in all cases: relative viability (nuclei count vs DMSO), 5 days (fraction); higher = more cells survive
Compound in assay [1]: CC(C)C[C@H](NC(=O)[C@H](CCc1ccccc1)NC(=O)CN1CCOCC1)C(=O)N[C@@H](Cc1ccccc1)C(=O)N[C@@H](CC(C)C)C(=O)[C@@]1(C)CO1 [Carfilzomib] + CC(=O)c1c(C)c2cnc(Nc3ccc(N4CCNCC4)cn3)nc2n(C2CCCC2)c1=O [Palbociclib] (partner 0.5 µM)
In short, it runs like this: (§1)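 One day after seeding in 1536-well plates, lung cancer cell lines were dosed by pin tool. Dosing was either single-drug or a fixed anchor-drug dose plus five library-drug doses (not always all listed) in √10 steps. After 5 days, nuclei were stained in one fix-and-stain step and counted on 4× images, and relative viability is the nuclei count of treated wells over that of vehicle wells, given as the median of duplicate plates.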

Compound in the assay “Olaparib + Trametinib”: O=C(c1cc(Cc2n[nH]c(=O)c3ccccc23)ccc1F)N1CCN(C(=O)C2CC2)CC1 [Olaparib] + CC(=O)Nc1cccc(-n2c(=O)n(C3CC3)c(=O)c3c(Nc4ccc(I)cc4F)n(C)c(=O)c(C)c32)c1 [Trametinib] (partner 0.02 µM)
In outline: as §1

Compound in the assay “Olaparib + Alpelisib”: O=C(c1cc(Cc2n[nH]c(=O)c3ccccc23)ccc1F)N1CCN(C(=O)C2CC2)CC1 [Olaparib] + Cc1nc(NC(=O)N2CCC[C@H]2C(N)=O)sc1-c1ccnc(C(C)(C)C(F)(F)F)c1 [Alpelisib] (partner 2 µM)
In short, it runs like this:
as §1

Compound in the assay “Carfilzomib + Pictilisib”: CC(C)C[C@H](NC(=O)[C@H](CCc1ccccc1)NC(=O)CN1CCOCC1)C(=O)N[C@@H](Cc1ccccc1)C(=O)N[C@@H](CC(C)C)C(=O)[C@@]1(C)CO1 [Carfilzomib] + CS(=O)(=O)N1CCN(Cc2cc3nc(-c4cccc5[nH]ncc45)nc(N4CCOCC4)c3s2)CC1 [Pictilisib] (partner 1 µM)
In short, it runs like this:
as §1

As for NCI-H358, the relative viability in assay [1] (first compound 0.001 µM) is 0.139; in assay [1] (first compound 0.003162 µM) it was 0.117; in assay [1] (first compound 0.01 µM) it was 0.114; in assay [1] (first compound 0.03162 µM), 0.0724; in assay [1] (first compound 0.1 µM), 0.0923; in the assay with Olaparib + Trametinib (first compound 0.08 µM), 0.13. In addition, the relative viability in the assay with Olaparib + Trametinib (first compound 0.253 µM) amounted to 0.147; in the assay with Olaparib + Trametinib (first compound 2.53 µM), 0.145; with Olaparib + Trametinib (first compound 8 µM) it was 0.12; with Olaparib + Alpelisib (first compound 0.08 µM), 0.862; with Olaparib + Alpelisib (first compound 0.253 µM), 0.808; with Olaparib + Alpelisib (first compound 2.53 µM) it was 0.868. For the same cell line, the relative viability in the assay with Olaparib + Alpelisib (first compound 8 µM) worked out at 0.773; with Carfilzomib + Pictilisib (first compound 0.001 µM), 0.424; with Carfilzomib + Pictilisib (first compound 0.003162 µM) it was 0.453; with Carfilzomib + Pictilisib (first compound 0.01 µM), 0.305; with Carfilzomib + Pictilisib (first compound 0.03162 µM), 0.147; in the assay with Carfilzomib + Pictilisib (first compound 0.1 µM), 0.135.

Turning to NCI-H441, the relative viability in assay [1] (first compound 0.001 µM) came to 0.217; in assay [1] (first compound 0.003162 µM), 0.219; in assay [1] (first compound 0.01 µM) it was 0.178; in assay [1] (first compound 0.03162 µM) it was 0.0969; in assay [1] (first compound 0.1 µM) it was 0.155; with Olaparib + Trametinib (first compound 0.08 µM) it was 0.548. Also, the relative viability with Olaparib + Trametinib (first compound 0.253 µM) was 0.442; with Olaparib + Trametinib (first compound 2.53 µM) it was 0.382; with Olaparib + Trametinib (first compound 8 µM) it was 0.447; in the assay with Olaparib + Alpelisib (first compound 0.253 µM) it was 0.541; in the assay with Olaparib + Alpelisib (first compound 2.53 µM), 0.568; in the assay with Olaparib + Alpelisib (first compound 8 µM), 0.487. Also, the relative viability with Carfilzomib + Pictilisib (first compound 0.001 µM) was determined as 0.486; in the assay with Carfilzomib + Pictilisib (first compound 0.003162 µM), 0.569; with Carfilzomib + Pictilisib (first compound 0.01 µM), 0.144; with Carfilzomib + Pictilisib (first compound 0.03162 µM), 0.105; in the assay with Carfilzomib + Pictilisib (first compound 0.1 µM), 0.141.

For NCI-H460, the relative viability in assay [1] (first compound 0.001 µM) is 0.125; in assay [1] (first compound 0.003162 µM), 0.225; in assay [1] (first compound 0.01 µM) it was 0.0809; in assay [1] (first compound 0.03162 µM) it was 0.0983; in assay [1] (first compound 0.1 µM) it was 0.0171; in the assay with Olaparib + Trametinib (first compound 0.08 µM), 0.115. The relative viability in the assay with Olaparib + Trametinib (first compound 0.253 µM) worked out at 0.0823; with Olaparib + Trametinib (first compound 2.53 µM), 0.121; with Olaparib + Trametinib (first compound 8 µM) it was 0.0533; with Olaparib + Alpelisib (first compound 0.08 µM), 0.62; in the assay with Olaparib + Alpelisib (first compound 0.253 µM), 0.38; with Olaparib + Alpelisib (first compound 2.53 µM) it was 0.238. In addition, the relative viability was found to be 0.173 in the assay with Olaparib + Alpelisib (first compound 8 µM); 0.438 with Carfilzomib + Pictilisib (first compound 0.001 µM); 0.376 in the assay with Carfilzomib + Pictilisib (first compound 0.003162 µM); 0.381 in the assay with Carfilzomib + Pictilisib (first compound 0.01 µM); 0.0673 with Carfilzomib + Pictilisib (first compound 0.03162 µM); 0.0409 with Carfilzomib + Pictilisib (first compound 0.1 µM).

For NCI-H520, the relative viability in assay [1] (first compound 0.001 µM) was 0.187; in assay [1] (first compound 0.003162 µM), 0.217; in assay [1] (first compound 0.01 µM) it was 0.162; in assay [1] (first compound 0.03162 µM), 0.133; in assay [1] (first compound 0.1 µM), 0.144; in the assay with Olaparib + Trametinib (first compound 0.08 µM), 0.794. In addition, the relative viability turned out to be 0.527 with Olaparib + Trametinib (first compound 0.253 µM); 0.506 with Olaparib + Trametinib (first compound 2.53 µM); 0.311 in the assay with Olaparib + Trametinib (first compound 8 µM); 1.05 with Olaparib + Alpelisib (first compound 0.08 µM); 0.843 with Olaparib + Alpelisib (first compound 0.253 µM); 0.814 with Olaparib + Alpelisib (first compound 2.53 µM). Moreover, the relative viability with Olaparib + Alpelisib (first compound 8 µM) came to 0.529; in the assay with Carfilzomib + Pictilisib (first compound 0.001 µM), 0.263; in the assay with Carfilzomib + Pictilisib (first compound 0.003162 µM), 0.246; with Carfilzomib + Pictilisib (first compound 0.01 µM) it was 0.222; with Carfilzomib + Pictilisib (first compound 0.03162 µM) it was 0.176; with Carfilzomib + Pictilisib (first compound 0.1 µM) it was 0.186.

NCI-H647: the relative viability stood at 0.458 in assay [1] (first compound 0.001 µM); 0.45 in assay [1] (first compound 0.003162 µM); 0.306 in assay [1] (first compound 0.01 µM); 0.0189 in assay [1] (first compound 0.03162 µM); 0.0185 in assay [1] (first compound 0.1 µM); 0.471 with Olaparib + Trametinib (first compound 0.08 µM). For the same cell line, the relative viability turned out to be 0.424 in the assay with Olaparib + Trametinib (first compound 0.253 µM); 0.54 in the assay with Olaparib + Trametinib (first compound 2.53 µM); 0.523 with Olaparib + Trametinib (first compound 8 µM); 1.41 in the assay with Olaparib + Alpelisib (first compound 0.08 µM); 1.05 with Olaparib + Alpelisib (first compound 0.253 µM); 1.29 with Olaparib + Alpelisib (first compound 2.53 µM). Further, the relative viability with Olaparib + Alpelisib (first compound 8 µM) came to 0.954; with Carfilzomib + Pictilisib (first compound 0.003162 µM), 0.562; with Carfilzomib + Pictilisib (first compound 0.01 µM), 0.397; in the assay with Carfilzomib + Pictilisib (first compound 0.03162 µM) it was 0.0769; with Carfilzomib + Pictilisib (first compound 0.1 µM) it was 0.036.

The record behind these values is the supplement of paper PMC10307832.
